In paper PMC4134510 (Journal of medicinal chemistry, 2010):

Columns and labels:
PDK1(h) = target: T1, PDK1(h) (Homo sapiens, UniProt O15530); assay: Kinase selectivity panel, enzymatic activity; type: biochemical; details: read-out: Enzymatic activity (% inhibition): PDK1(h)
T1 sequence (O15530 1-556): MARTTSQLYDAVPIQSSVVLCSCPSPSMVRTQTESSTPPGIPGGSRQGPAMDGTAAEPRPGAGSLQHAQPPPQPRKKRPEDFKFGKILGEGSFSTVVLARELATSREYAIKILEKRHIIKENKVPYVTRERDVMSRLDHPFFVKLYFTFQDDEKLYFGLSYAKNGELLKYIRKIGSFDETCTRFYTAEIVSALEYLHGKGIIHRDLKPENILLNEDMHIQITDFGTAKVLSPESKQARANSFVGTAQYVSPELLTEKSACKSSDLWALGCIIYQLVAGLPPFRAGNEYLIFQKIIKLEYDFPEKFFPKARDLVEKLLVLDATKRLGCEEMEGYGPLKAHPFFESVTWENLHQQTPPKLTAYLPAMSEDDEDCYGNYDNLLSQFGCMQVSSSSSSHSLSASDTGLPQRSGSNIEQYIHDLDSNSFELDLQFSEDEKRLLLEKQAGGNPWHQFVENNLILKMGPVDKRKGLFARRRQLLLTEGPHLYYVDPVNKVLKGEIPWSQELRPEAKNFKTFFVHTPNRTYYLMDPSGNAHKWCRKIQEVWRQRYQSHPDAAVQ

[1] = type: in vivo; details: mice, oral once daily
[2] = Pharmacokinetic properties on Balb/C mouse; details: in vivo, oral, 20 mg/kg

Structure (SMILES): Cc1ccc(Nc2ncc3c(n2)N(C)C(=O)N(c2cc(NC(=O)c4cccc(C(F)(F)F)c4)ccc2C)C3)cn1 [GNF-7]
- inhibition at 10 µM (PDK1(h)): 0%
- body weight change ([1]; 10 mg/kg dosing group): only a very small weight change
- body weight loss ([1]; doses of 20 mg/kg and above): > 10%
- AUC [2]: 26.7 µM·h
